A short description of experiment [1]: lowering of blood pressure, in vivo testing. Conditions: synthetic peptide; extended time period.
Experiment [2] relates to secretion of ACTH and β-endorphin. In words: stimulation of ACTH and β-endorphin, background statements (in vitro and in vivo). The note with it: synthetic peptide.
For experiment [3], the system named is cultured rat pituitary cells. The experiment in a line: secretion of ACTH and β-endorphin by cultured rat pituitary cells. In kind it is cell-based. The note with it: cultured rat pituitary cells; read-out: concentration giving half-maximal responses, secretion of ACTH and β-endorphin.
For experiment [4] the following is noted: in mammals; cited from earlier work.
The test system of experiment [5] is secretion of ACTH and β-endorphin. The note with it: in mammals; cited from earlier work.
Another experiment concerns gastric acid production. The note with it: cited from earlier work.

Structures are written as SMILES.

Regarding `CC[C@H](C)[C@H](NC(=O)[C@@H](NC(=O)[C@H](CCC(=O)O)NC(=O)[C@H](CCSC)NC(=O)[C@H](CC(C)C)NC(=O)[C@H](CCCCN)NC(=O)[C@H](CCCNC(=N)N)NC(=O)[C@H](CC(N)=O)NC(=O)[C@H](CO)NC(=O)[C@H](Cc1c[nH]cn1)NC(=O)[C@H](C)NC(=O)[C@H](CCC(N)=O)NC(=O)[C@H](CCC(N)=O)NC(=O)[C@H](C)NC(=O)[C@H](CC(C)C)NC(=O)[C@H](CCC(N)=O)NC(=O)[C@H](CCC(=O)O)NC(=O)[C@H](C)NC(=O)[C@H](CCCNC(=N)N)NC(=O)[C@H](C)NC(=O)[C@H](CCSC)NC(=O)[C@H](CCC(=O)O)NC(=O)[C@H](CC(C)C)NC(=O)[C@@H](NC(=O)[C@H](CCC(=O)O)NC(=O)[C@H](CCCNC(=N)N)NC(=O)[C@H](CC(C)C)NC(=O)[C@H](CC(C)C)NC(=O)[C@H](Cc1c[nH]cn1)NC(=O)[C@H](Cc1ccccc1)NC(=O)[C@@H](NC(=O)[C@H](CC(C)C)NC(=O)[C@H](CC(=O)O)NC(=O)[C@H](CC(C)C)NC(=O)[C@H](CO)NC(=O)[C@@H](NC(=O)[C@@H]1CCCN1C(=O)[C@@H]1CCCN1C(=O)[C@H](CCC(=O)O)NC(=O)[C@H](CCC(=O)O)NC(=O)[C@@H](N)CO)[C@@H](C)CC)[C@@H](C)O)C(C)C)[C@@H](C)CC)C(N)=O` [rCRF, reference compound], in experiment [1], the “lowering of blood pressure” value was “substantially lower blood pressure for an extended time period”. Further, in experiment [2], the “stimulation of ACTH and β-endorphin activities” value is “stimulate ACTH and β-endorphin activities in vitro and in vivo”.

With `CC[C@H](C)[C@H](NC(=O)[C@H](CC(=O)O)NC(=O)[C@H](CC(C)C)NC(=O)[C@H](CC(C)C)NC(=O)[C@H](CCCCN)NC(=O)[C@H](CCCNC(=N)N)NC(=O)[C@H](CC(N)=O)NC(=O)[C@H](CO)NC(=O)[C@H](Cc1c[nH]cn1)NC(=O)[C@H](C)NC(=O)[C@H](CCC(N)=O)NC(=O)[C@H](CCC(N)=O)NC(=O)[C@H](C)NC(=O)[C@H](CC(C)C)NC(=O)[C@H](CCC(N)=O)NC(=O)[C@H](CC(=O)O)NC(=O)[C@H](C)NC(=O)[C@H](CCCCN)NC(=O)[C@@H](NC(=O)[C@H](CCSC)NC(=O)[C@H](CCC(=O)O)NC(=O)[C@H](CC(C)C)NC(=O)[C@@H](NC(=O)[C@H](CCC(=O)O)NC(=O)[C@H](CCCNC(=N)N)NC(=O)[C@H](CC(C)C)NC(=O)[C@H](CC(C)C)NC(=O)[C@H](Cc1c[nH]cn1)NC(=O)[C@H](Cc1ccccc1)NC(=O)[C@@H](NC(=O)[C@H](CC(C)C)NC(=O)[C@H](CC(=O)O)NC(=O)[C@H](CC(C)C)NC(=O)[C@H](CO)NC(=O)[C@@H](NC(=O)[C@@H]1CCCN1C(=O)[C@@H]1CCCN1C(=O)[C@H](CCC(=O)O)NC(=O)[C@H](CCC(N)=O)NC(=O)[C@@H](N)CO)[C@@H](C)CC)[C@@H](C)O)C(C)C)[C@@H](C)O)C(=O)N[C@@H](C)C(N)=O` [oCRF], the EC50 in experiment [3] was roughly 0.25 nM. Also, the “lowering of blood pressure” value in experiment [1] is recorded as “substantially lower blood pressure for an extended time period”. The “stimulation of ACTH and β-endorphin activities” value in experiment [2] was “stimulate ACTH and β-endorphin activities in vitro and in vivo”. For the same compound, in experiment [4], the “biological activity in lowering blood pressure (reported)” value is reported as “biological activity in lowering blood pressure in mammals”. The “biological activity in stimulating the secretion of ACTH and β-endorphin (reported)” value in experiment [5] is “stimulating the secretion of ACTH and β-endorphin”. Also, the “gastric acid production” value with gastric acid production is “inhibits gastric acid production”.
